Data reported in EP3057951B1, “METHYLENE LINKED QUINOLINYL MODULATORS OF ROR-GAMMA-T” (Janssen Pharmaceutica NV, priority 2013, dated 2015).
Several values for one entry are separate records, joined by “and”; a condition that tells them apart may be missing. Equal values may be shown once.

Tests used:
[1] = biological target: T1, wild type human RORγt LBD (Homo sapiens, UniProt P51449); experiment: RORγt (LBD) Reporter Assay (GAL4-luciferase, HEK293T cells); type: cell-based; conditions: for IC50: HEK293T cells, value after the comma with ∼, > or < could not be included in the average; for inhibition at 6 µM: HEK-293T, read-out: RORγt (LBD) Reporter Assay, % inhibition @ 6 µM, 6 µM compound concentration; for RORγt (LBD) Reporter Assay, % inhibition @ 6 µM: 6 µM compound concentration
T1 construct: expressed in transfected cells; host or cells: HEK293T
T1 sequence (P51449 258-518): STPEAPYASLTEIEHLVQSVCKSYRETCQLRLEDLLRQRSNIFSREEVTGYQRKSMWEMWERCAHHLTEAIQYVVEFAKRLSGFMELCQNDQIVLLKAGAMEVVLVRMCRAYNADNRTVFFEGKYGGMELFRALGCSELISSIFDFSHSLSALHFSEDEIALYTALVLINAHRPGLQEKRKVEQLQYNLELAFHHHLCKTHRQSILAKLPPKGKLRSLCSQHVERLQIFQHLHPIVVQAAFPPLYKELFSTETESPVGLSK

[2] = biological target: T2, wild type human RORγt ligand binding domain (RORyt LBD) (Homo sapiens, UniProt P51449); experiment: RORγt ThermoFluor assay (thermal shift, binding affinity KD)
T2 construct: His-tag (N); TurboTEV protease cleavage site (ENLYFQG) (N); made in house; host or cells: E. coli (pHIS1, modified pET vector)
T2 sequence (P51449 258-518): T1 sequence (P51449 258-518)

Row | IC50 [1] | inhibition at 6 µM [1] [%] | Kd [2] [nM] | RORγt (LBD) Reporter Assay, % inhibition @ 6 µM [1] [%] | Compound
1 | 1400 nM | 84 | 390 |  | COc1nc2ccc(C(O)(c3ccc(C)nc3C)c3cnnn3C)cc2c(Cl)c1Cc1ccc(C)cc1 (single isomer, unassigned) [Example 20b, (4-Chloro-2-methoxy-3-(4-methylbenzyl)quinolin-6-yl)(2,6-dimethylpyridin-3-yl)(1-methyl-1H-1,2,3-triazol-5-yl)methanol]
2 | 57 nM and ~30 nM |  | 0.62 | 93 | COc1nc2ccc(C(O)(c3ccc(C)nc3C)c3cnnn3C)cc2c(Cl)c1Cc1ccc(C)cc1 (single isomer, unassigned) [Example 20c, (4-Chloro-2-methoxy-3-(4-methylbenzyl)quinolin-6-yl)(2,6-dimethylpyridin-3-yl)(1-methyl-1H-1,2,3-triazol-5-yl)methanol]
3 | 130 nM | 99 | 22 |  | COc1nc2ccc(C(O)(c3sc(C)nc3C)c3cnnn3C)cc2c(Cl)c1Cc1ccc(-n2cccn2)cc1 (single isomer, unassigned) [Example 21b, (3-(4-(1H-Pyrazol-1-yl)benzyl)-4-chloro-2-methoxyquinolin-6-yl)(2,4-dimethylthiazol-5-yl)(1-methyl-1H-1,2,3-triazol-5-yl)methanol]
4 | 8.7 nM |  | 0.08 | 98 | COc1nc2ccc(C(O)(c3sc(C)nc3C)c3cnnn3C)cc2c(Cl)c1Cc1ccc(-n2cccn2)cc1 (single isomer, unassigned) [Example 21c, (3-(4-(1H-Pyrazol-1-yl)benzyl)-4-chloro-2-methoxyquinolin-6-yl)(2,4-dimethylthiazol-5-yl)(1-methyl-1H-1,2,3-triazol-5-yl)methanol]
5 | 200 nM | 94 | 82 |  | CCc1nc2ccc(C(O)(c3ccc(C)nc3C)c3cnnn3C)cc2c(Cl)c1Cc1ccc(C(F)(F)F)cc1 (single isomer, unassigned) [Example 23b, (4-Chloro-2-ethyl-3-(4-(trifluoromethyl)benzyl)quinolin-6-yl)(2,6-dimethylpyridin-3-yl)(1-methyl-1H-1,2,3-triazol-5-yl)methanol]
6 | 46 nM |  | 0.03 | 97 | CCc1nc2ccc(C(O)(c3ccc(C)nc3C)c3cnnn3C)cc2c(Cl)c1Cc1ccc(C(F)(F)F)cc1 (single isomer, unassigned) [Example 23c, (4-Chloro-2-ethyl-3-(4-(trifluoromethyl)benzyl)quinolin-6-yl)(2,6-dimethylpyridin-3-yl)(1-methyl-1H-1,2,3-triazol-5-yl)methanol]
7 | ~220 nM | 92 | 130 |  | COc1nc2ccc(C(O)(c3ccc(C)nc3C)c3cnnn3C)cc2c(Cl)c1Cc1ccc(N(C)C)cc1 (single isomer, unassigned) [Example 24b, (4-Chloro-3-(4-(dimethylamino)benzyl)-2-methoxyquinolin-6-yl)(2,6-dimethylpyridin-3-yl)(1-methyl-1H-1,2,3-triazol-5-yl)methanol]
8 | 25 nM |  | 0.32 | 97 | COc1nc2ccc(C(O)(c3ccc(C)nc3C)c3cnnn3C)cc2c(Cl)c1Cc1ccc(N(C)C)cc1 (single isomer, unassigned) [Example 24c, (4-Chloro-3-(4-(dimethylamino)benzyl)-2-methoxyquinolin-6-yl)(2,6-dimethylpyridin-3-yl)(1-methyl-1H-1,2,3-triazol-5-yl)methanol]
9 | 1.9 nM and < 3 nM | 100 | 0.01 |  | CCc1nc2ccc(C(O)(c3cnnn3C)c3cnc(C)n3C)cc2c(Cl)c1Cc1ccc(C(F)(F)F)cc1 (single isomer, unassigned) [Example 25b, (4-Chloro-2-ethyl-3-(4-(trifluoromethyl)benzyl)quinolin-6-yl)(1,2-dimethyl-1H-imidazol-5-yl)(1-methyl-1H-1,2,3-triazol-5-yl)methanol]
10 | 2.1 nM |  | 0.02 | 99 | CCc1nc2ccc(C(O)(c3cnnn3C)c3cnc(C)n3C)cc2c(Cl)c1Cc1ccc(C(F)(F)F)cc1 (single isomer, unassigned) [Example 25c, (4-Chloro-2-ethyl-3-(4-(trifluoromethyl)benzyl)quinolin-6-yl)(1,2-dimethyl-1H-imidazol-5-yl)(1-methyl-1H-1,2,3-triazol-5-yl)methanol]

The next lines start with the compound.

Row | Compound | IC50 [1] | inhibition at 6 µM [1] [%] | Kd [2] [nM] | RORγt (LBD) Reporter Assay, % inhibition @ 6 µM [1] [%]
11 | COc1nc2ccc(C(O)(c3ccc(C#N)cc3)c3cncn3C)cc2c(Cl)c1Cc1ccc(-n2cncn2)cc1 (single isomer, unassigned) [Example 14b, 4-((3-(4-(1H-1,2,4-Triazol-1-yl)benzyl)-4-chloro-2-methoxyquinolin-6-yl)(hydroxy)(1-methyl-1H-imidazol-5-yl)methyl)benzonitrile] | 120 nM | 105 | 140 | 
12 | COc1nc2ccc(C(O)(c3ccc(C#N)cc3)c3cncn3C)cc2c(Cl)c1Cc1ccc(-n2cncn2)cc1 (single isomer, unassigned) [Example 14c, 4-((3-(4-(1H-1,2,4-Triazol-1-yl)benzyl)-4-chloro-2-methoxyquinolin-6-yl)(hydroxy)(1-methyl-1H-imidazol-5-yl)methyl)benzonitrile] | 24 nM |  | 5.5 | 106
13 | COc1nc2ccc(C(O)(c3ccc(C#N)cc3)c3cncn3C)cc2c(C#N)c1Cc1ccc(-n2cncn2)cc1 (single isomer, unassigned) [Example 15b, 3-(4-(1H-1,2,4-Triazol-1-yl)benzyl)-6-((4-cyanophenyl)(hydroxy)(1-methyl-1H-imidazol-5-yl)methyl)-2-methoxyquinoline-4-carbonitrile] | 410 nM | 99 | 140 | 
14 | COc1nc2ccc(C(O)(c3ccc(C#N)cc3)c3cncn3C)cc2c(C#N)c1Cc1ccc(-n2cncn2)cc1 (single isomer, unassigned) [Example 15c, 3-(4-(1H-1,2,4-Triazol-1-yl)benzyl)-6-((4-cyanophenyl)(hydroxy)(1-methyl-1H-imidazol-5-yl)methyl)-2-methoxyquinoline-4-carbonitrile] | 28 nM |  | 17 | 97
15 | COc1nc2ccc(C(O)(c3ccc(C)nc3C)c3cnnn3C)cc2c(Cl)c1Cc1ccc(-n2cccn2)cc1 (single isomer, unassigned) [Example 17b, (3-(4-(1H-Pyrazol-1-yl)benzyl)-4-chloro-2-methoxyquinolin-6-yl)(2,6-dimethylpyridin-3-yl)(1-methyl-1H-1,2,3-triazol-5-yl)methanol] | 660 nM | 97 | 200 | 
16 | COc1nc2ccc(C(O)(c3ccc(C)nc3C)c3cnnn3C)cc2c(Cl)c1Cc1ccc(-n2cccn2)cc1 (single isomer, unassigned) [Example 17c, (3-(4-(1H-Pyrazol-1-yl)benzyl)-4-chloro-2-methoxyquinolin-6-yl)(2,6-dimethylpyridin-3-yl)(1-methyl-1H-1,2,3-triazol-5-yl)methanol] | 9 nM |  | 0.29 | 101
17 | COc1nc2ccc(C(O)(c3ccccc3)C3CCN(C(C)=O)CC3)cc2c(Cl)c1Cc1ccc(-n2cncn2)cc1 (single isomer, unassigned) [Example 18b, 1-(4-((3-(4-(1H-1,2,4-Triazol-1-yl)benzyl)-4-chloro-2-methoxyquinolin-6-yl)(hydroxy)(phenyl)methyl)piperidin-1-yl)ethanone] | 83 nM | 99 | 8 | 
18 | COc1nc2ccc(C(O)(c3ccccc3)C3CCN(C(C)=O)CC3)cc2c(Cl)c1Cc1ccc(-n2cncn2)cc1 (single isomer, unassigned) [Example 18c, 1-(4-((3-(4-(1H-1,2,4-Triazol-1-yl)benzyl)-4-chloro-2-methoxyquinolin-6-yl)(hydroxy)(phenyl)methyl)piperidin-1-yl)ethanone] | 88 nM |  | 50 | 91
19 | COc1nc2ccc(C(O)(c3ccc(C)nc3C)c3cnnn3C)cc2c(Cl)c1Cc1ccc(-n2cncn2)cc1 (single isomer, unassigned) [Example 22b, (3-(4-(1H-1,2,4-Triazol-1-yl)benzyl)-4-chloro-2-methoxyquinolin-6-yl)(2,6-dimethylpyridin-3-yl)(1-methyl-1H-1,2,3-triazol-5-yl)methanol] | 790 nM | 97 | 480 | 
20 | COc1nc2ccc(C(O)(c3ccc(C)nc3C)c3cnnn3C)cc2c(Cl)c1Cc1ccc(-n2cncn2)cc1 (single isomer, unassigned) [Example 22c, (3-(4-(1H-1,2,4-Triazol-1-yl)benzyl)-4-chloro-2-methoxyquinolin-6-yl)(2,6-dimethylpyridin-3-yl)(1-methyl-1H-1,2,3-triazol-5-yl)methanol] | 11 nM |  | 2 | 98
21 | COc1nc2ccc(C(O)(c3ccc(C#N)cc3)c3cncn3C)cc2c(Cl)c1Cc1ccc(C(F)(F)F)nc1 (single isomer, unassigned) [Example 38b, 4-((4-Chloro-2-methoxy-3-((6-(trifluoromethyl)pyridin-3-yl)methyl)quinolin-6-yl)(hydroxy)(1-methyl-1H-imidazol-5-yl)methyl)benzonitrile] | 250 nM | 94 | 150 | 
